Where “and” joins values, the source holds several entries; their conditions need not be identical. Equal entries are not always repeated. Where two headings read alike, the source gives them in different places.
Assays:
HeLa cells = test: Cytotoxicity in uninfected HeLa cell cultures, MTT cell viability assay; assay type: cell-based; conditions: MTT at 48 hours
Protocol: (§1) Mammalian cell lines, MDCK CCL34 and HeLa cells CCL2 (both obtained under those accession numbers from ATCC culture) are plated in 96 well microtiter dishes at a density of 3.5×10^4 cells per well and infected with virus at low multiplicity followed by treatment with drug 24 hours after plating of cells; drug concentrations range from 0.025-12.5 mM. MDCK cells are infected with influenza virus (strain A/NWS) and HeLA cells are infected with HRV 14-14VR-284 (obtained from ATCC) (human rhinovirus 14) or CVB3 VR30 (coxsackie virus B3 strain Nancy obtained from ATCC); replicate uninfected cell cultures are treated with drug as toxicity control. At 48 hours after infection the extent of virus growth is determined by ELISA in the case of influenza virus or by the MTT (tetrazolium dye) cell viability assay in the cases of HRV 14 and CVB3. The influenza A (A/NWS)VR-129 (ATCC) virus ELISA assay utilizes a primary monoclonal antibody to the virus hemagglutinin protein and a secondary antibody conjugated to B-galactosidase. Cytotoxicity of drugs in uninfected cell cultures is determined by MTT cell viability assay at 48 hours after drug treatment

MDCK cells = test: cells; assay type: cell-based; conditions: Canis lupus familiaris, 48 h, read-out: IC50 Value Tox (beside Flu A/NWS)
[1] = molecular target: influenza virus RNA polymerase (Influenza A virus, UniProt P03431); assay type: biochemical
VSV RNA polymerase = VSV RNA polymerase (Vesicular stomatitis Indiana virus, UniProt P03523); assay type: biochemical, Vesicular stomatitus virus (VSV)
[2] = test system: influenza virus (strain A/NWS); test: microbe, parasite or virus in culture; assay type: cell-based; conditions: MDCK, 48 h, read-out: IC50 Value Flu A/NWS
[3] = test system: HRV 14 (human rhinovirus 14); test: HRV 14 growth in HeLa cells by MTT cell viability assay; assay type: cell-based; conditions: Rhinovirus B, MTT at 48 hours after infection
Protocol: as §1

[4] = test system: CVB3 (coxsackie virus B3 strain Nancy); test: CVB3 growth in HeLa cells by MTT cell viability assay; assay type: cell-based; conditions: Enterovirus B, MTT at 48 hours after infection
Protocol: as §1

[5] = test system: influenza A virus (strain A/NWS); conditions: mouse, in vivo
[6] = read-out: IC50 Value Tox (beside CVB3)
[7] = Homo sapiens, read-out: IC50 Value Tox (beside HRV 14)
[8] = Homo sapiens, read-out: IC50 Value Tox (beside CVB3)

Chain of influenza virus RNA polymerase (P03431 whole entry, looked up): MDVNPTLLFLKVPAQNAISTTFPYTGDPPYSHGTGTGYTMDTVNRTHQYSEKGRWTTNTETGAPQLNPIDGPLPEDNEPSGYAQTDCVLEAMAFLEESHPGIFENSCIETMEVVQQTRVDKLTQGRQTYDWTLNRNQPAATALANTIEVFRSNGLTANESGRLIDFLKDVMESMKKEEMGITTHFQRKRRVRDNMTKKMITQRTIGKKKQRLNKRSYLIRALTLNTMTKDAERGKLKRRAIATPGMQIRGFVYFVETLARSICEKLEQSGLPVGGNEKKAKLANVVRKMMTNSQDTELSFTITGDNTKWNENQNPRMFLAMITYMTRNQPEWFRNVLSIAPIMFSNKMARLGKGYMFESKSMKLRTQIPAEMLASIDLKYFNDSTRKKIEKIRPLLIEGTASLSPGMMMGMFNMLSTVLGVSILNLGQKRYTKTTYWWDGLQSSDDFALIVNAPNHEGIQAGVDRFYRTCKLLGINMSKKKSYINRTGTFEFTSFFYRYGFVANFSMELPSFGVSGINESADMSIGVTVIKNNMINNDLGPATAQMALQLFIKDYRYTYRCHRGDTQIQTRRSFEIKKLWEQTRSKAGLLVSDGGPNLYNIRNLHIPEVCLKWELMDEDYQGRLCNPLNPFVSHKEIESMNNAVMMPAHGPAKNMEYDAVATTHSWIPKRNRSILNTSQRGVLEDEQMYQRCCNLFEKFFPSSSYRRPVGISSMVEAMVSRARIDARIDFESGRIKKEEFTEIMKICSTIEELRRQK
Chain of VSV RNA polymerase (P03523 whole entry, looked up): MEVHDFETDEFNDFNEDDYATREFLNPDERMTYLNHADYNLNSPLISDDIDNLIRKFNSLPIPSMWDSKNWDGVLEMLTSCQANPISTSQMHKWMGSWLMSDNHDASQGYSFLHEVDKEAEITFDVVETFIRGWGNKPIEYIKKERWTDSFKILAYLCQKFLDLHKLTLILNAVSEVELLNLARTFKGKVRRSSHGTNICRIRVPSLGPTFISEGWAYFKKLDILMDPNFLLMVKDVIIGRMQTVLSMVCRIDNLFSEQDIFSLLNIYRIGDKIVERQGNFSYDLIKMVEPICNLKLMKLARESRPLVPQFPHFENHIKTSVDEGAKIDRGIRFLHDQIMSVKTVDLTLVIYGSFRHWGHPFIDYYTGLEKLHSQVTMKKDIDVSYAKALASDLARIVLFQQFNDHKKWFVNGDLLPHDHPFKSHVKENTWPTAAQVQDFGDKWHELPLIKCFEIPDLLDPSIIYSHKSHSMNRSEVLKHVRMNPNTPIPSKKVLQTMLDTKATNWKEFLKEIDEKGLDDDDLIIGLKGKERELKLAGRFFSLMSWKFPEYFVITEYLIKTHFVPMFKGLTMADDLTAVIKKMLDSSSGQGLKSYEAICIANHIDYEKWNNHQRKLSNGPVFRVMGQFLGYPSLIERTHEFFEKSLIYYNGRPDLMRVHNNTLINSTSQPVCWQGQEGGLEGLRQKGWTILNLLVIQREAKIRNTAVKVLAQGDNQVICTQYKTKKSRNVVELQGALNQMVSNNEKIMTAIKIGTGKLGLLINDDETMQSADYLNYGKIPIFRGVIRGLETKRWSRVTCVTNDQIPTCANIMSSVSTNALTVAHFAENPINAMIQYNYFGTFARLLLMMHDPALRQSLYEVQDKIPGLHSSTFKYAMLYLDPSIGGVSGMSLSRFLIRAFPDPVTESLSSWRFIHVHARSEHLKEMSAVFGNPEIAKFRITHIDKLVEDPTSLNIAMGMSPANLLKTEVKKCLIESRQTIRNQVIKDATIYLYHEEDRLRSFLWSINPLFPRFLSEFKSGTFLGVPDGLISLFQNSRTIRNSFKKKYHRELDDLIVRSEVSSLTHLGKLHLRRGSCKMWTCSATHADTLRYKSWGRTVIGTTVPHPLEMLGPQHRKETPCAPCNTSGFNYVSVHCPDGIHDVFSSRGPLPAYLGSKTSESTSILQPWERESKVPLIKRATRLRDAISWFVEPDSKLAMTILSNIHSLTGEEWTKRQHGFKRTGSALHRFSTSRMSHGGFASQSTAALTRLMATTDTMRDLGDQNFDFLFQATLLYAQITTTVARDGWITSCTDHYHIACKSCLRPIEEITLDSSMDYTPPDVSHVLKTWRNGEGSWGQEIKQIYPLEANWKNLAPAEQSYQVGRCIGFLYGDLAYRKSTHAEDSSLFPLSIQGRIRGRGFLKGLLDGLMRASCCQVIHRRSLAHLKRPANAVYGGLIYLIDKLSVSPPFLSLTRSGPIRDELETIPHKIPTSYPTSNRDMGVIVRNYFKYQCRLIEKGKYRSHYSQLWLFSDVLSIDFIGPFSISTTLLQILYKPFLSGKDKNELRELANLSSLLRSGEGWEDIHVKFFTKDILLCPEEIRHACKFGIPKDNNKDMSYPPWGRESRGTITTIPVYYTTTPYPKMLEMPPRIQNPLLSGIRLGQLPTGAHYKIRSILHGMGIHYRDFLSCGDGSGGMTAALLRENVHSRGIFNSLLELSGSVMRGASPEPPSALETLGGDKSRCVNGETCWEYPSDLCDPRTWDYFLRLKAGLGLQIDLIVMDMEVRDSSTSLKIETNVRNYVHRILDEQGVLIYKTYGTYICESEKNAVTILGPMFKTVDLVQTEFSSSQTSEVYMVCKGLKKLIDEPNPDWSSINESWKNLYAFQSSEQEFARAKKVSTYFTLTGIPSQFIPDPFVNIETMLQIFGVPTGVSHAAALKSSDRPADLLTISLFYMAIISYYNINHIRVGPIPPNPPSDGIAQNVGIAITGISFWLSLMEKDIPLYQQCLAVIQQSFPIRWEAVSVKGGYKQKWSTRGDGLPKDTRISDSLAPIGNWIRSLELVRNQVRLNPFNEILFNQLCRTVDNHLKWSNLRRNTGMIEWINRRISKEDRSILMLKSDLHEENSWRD

| Structure (SMILES) | IC50 (MDCK cells) | IC50 (HeLa cells; [7]) | IC50 [2] | IC50 [3] | other results |
| --- | --- | --- | --- | --- | --- |
| [N-]=[N+]=N[C@H]1C[C@H](n2ccc(N)nc2=O)O[C@@H]1CO [3'-AzdC] | – | – | – | – | IC50 (HeLa cells; [6]): > 12.5 mM |
| [N-]=[N+]=N[C@H]1C[C@H](n2ccc(=O)[nH]c2=O)O[C@@H]1CO [3'-AzdU] | – | – | – | – | IC50 (HeLa cells; [6]): > 12.5 mM |
| CO[C@H]1[C@@H](O)[C@H](n2cnc3c(N)ncnc32)O[C@@H]1CO [3'-OMeA] | > 50 mM | > 50 mM | – | – | – |
| CO[C@H]1[C@@H](O)[C@H](n2ccc(N)nc2=O)O[C@@H]1CO [3'-OMeC] | > 50 mM | > 50 mM | – | – | – |
| CO[C@H]1[C@@H](O)[C@H](n2cnc3c(=O)[nH]c(N)nc32)O[C@@H]1CO [3'-OMeG] | > 50 mM | > 50 mM | – | – | – |
| CO[C@H]1[C@@H](O)[C@H](n2ccc(=O)[nH]c2=O)O[C@@H]1CO [3'-OMeU] | > 50 mM | > 50 mM | – | – | – |
| Nc1ccn([C@@H]2O[C@H](COP(=O)(O)OP(=O)(O)OP(=O)(O)O)C[C@H]2O)c(=O)n1 [3'-d CTP, 3'-deoxy-CTP] | – | – | – | – | Activity against the influenza virus RNA polymerase [1]: low to moderately inhibitory activity; % Inhibition (VSV RNA polymerase): 0%; Effect on VSV RNA polymerase (VSV RNA polymerase): does not inhibit |
| Nc1nc2c(ncn2[C@@H]2O[C@H](COP(=O)(O)OP(=O)(O)OP(=O)(O)O)C[C@H]2O)c(=O)[nH]1 [3'-d GTP, 3'-deoxy-GTP] | – | – | – | – | % Inhibition [1]: 55%; Activity against the influenza virus RNA polymerase [1]: fairly good inhibitor; % Inhibition (VSV RNA polymerase): 13% and 7%; Effect on VSV RNA polymerase (VSV RNA polymerase): only weakly inhibitory |
| O=c1ccn([C@@H]2O[C@H](COP(=O)(O)OP(=O)(O)OP(=O)(O)O)C[C@H]2O)c(=O)[nH]1 [3'-d UTP, 3'-deoxy UTP] | – | – | – | – | Activity against the influenza virus RNA polymerase [1]: moderately active; Effect on VSV RNA polymerase (VSV RNA polymerase): little or no effect |
| Nc1ncnc2c1ncn2[C@@H]1O[C@H](CO)C[C@H]1O [3'-dA, 3'-deoxyriboadenine] | 1.4 mM | 0.13 mM | 0.8 mM | 0.048 mM | – |
| Nc1ccn([C@@H]2O[C@H](CO)C[C@H]2O)c(=O)n1 [3'-dC, 3'-deoxyribocytosine] | 5 mM | 1.8 mM | 0.9 mM | 0.025 mM | IC50 (HeLa cells; [8]): 1.8 mM; IC50 [4]: 0.09 mM; % ILS (increase in life span) [5]: 10% and 20%; % Survival (14 Days) [5]: 0% and 10%; Antiviral activity in murine model of influenza A virus infection [5]: minimal antiviral activity; MST [5]: 11 days and 12 days |
| Nc1nc2c(ncn2[C@@H]2O[C@H](CO)C[C@H]2O)c(=O)[nH]1 [3'-dG, 3'-deoxyriboguanine] | 2.1 mM | 3.4 mM | 0.27 mM | 0.28 mM | – |
| O=c1ccn([C@@H]2O[C@H](CO)C[C@H]2O)c(=O)[nH]1 [3'-dU, 3'-deoxyribouracil] | 12.5 mM | 2.4 mM | 0.085 mM | 0.027 mM | IC50 (HeLa cells; [8]): 2.4 mM; IC50 [4]: 0.09 mM; MST [5]: > 14 days and 10 days; Protection of animals in murine model of influenza A virus infection [5]: significant protection; Toxicity in mice [5]: appears to have toxicity |
